# Reference: patent publication US6410587B1, “Compounds and therapies for the prevention of vascular and non-vascular pathologies” (NeoRx Corporation, priority 1997, dated 2002)
# Assays:
# apoE knockout mice = experiment: Lipid lesion development in aortic sinus of apoE knockout mice (Oil Red O)
# Experimental: To determine the efficacy of combination therapy, and to provide evidence for synergism between aspirin and fish oil, 8-week-old female apoE knockout mice were fed aspirin or fish oil, or both, to assess the cardioprotective effects of modulating different components of the TGF-beta pathway.
# Group A mice (n=10) were sacrificed at day 0. Group B mice (n=10) were fed normal chow. […] Group D mice (n=10) were fed chow containing 33 mg/kg/day fish oil (200 μg Pulse cod liver oil/g food, Seven Seas Ltd., which contains 0.9 g eicosapentaenoic acid (EPA), and 0.3 g docosahexaenoic acid (DHA)) and 3 mg/kg/day aspirin dissolved in water. Group E mice (n=10) were fed chow containing 33 mg/kg/day fish oil. Group F mice (n=10) were fed chow containing Zocor (simvastatin; Zocor tablets, Merck, Sharpe & Dohme) at 400 μg/kg/day (2 μg/g food).
# Groups B-F were fed these regimens for 87 days. All mice were weighed daily for the first week and weekly thereafter. Food and water consumption over a 24 hour period were measured daily for the first 7 days and weekly thereafter.
# After 87 days, mice in groups B-F were fasted overnight and then sacrificed. Serum, heart, lungs and aorta samples were collected at the time of sacrifice. The heart, lungs and aorta were removed from each mouse and rinsed in PBS, dabbed dry on tissue and embedded in Cryo-M-bed embedding medium (Bright Instruments, Huntington, U.K.) before snap freezing in liquid nitrogen. Frozen sections (4 μm thickness) of the aortic sinus region were prepared from the heart/lung/aorta blocks according to the sectioning strategy of Paigen et al. (Arteriosclerosis, 10, 316 (1990)). Sections on 5% gelatin-coated slides were stained for neutral lipid by the Oil Red O technique and counter-stained with fast green (Grainger et al., Nature Med., 1, 1067 (1995)).
# The development of lipid-filled vascular lesions was determined by the quantitation of oil red O staining for neutral lipid deposited in the aortic sinus region. The area of lipid accumulation was measured using a calibrated microscope eye-piece, such that lipid droplets<50 μm^2 were ignored and contiguous regions of lipid staining>500 μm in area were classified as lesions.
# [1] = Simvastatin for 16 weeks in patients with high cholesterol; assay type: in vivo, human; conditions: six time points
# Experimental: Twenty six patients with high cholesterol were administered simnvastatin for 16 weeks. Blood was collected at six times points during the 16 weeks and analyzed for TGF-beta levels.
# [2] = tested on: smooth muscle α-actin (SM-α-actin); experiment: SM-alpha-actin in vessel wall (quantitative immunofluorescence); assay type: in vivo, mouse; conditions: 87 days treatment
# Experimental: (§1) SM-α-actin and osteopontin were measured by quantitative immunofluorescence microscopy using specific primary antibodies A-6125 (Sigma) and MBP111Bio (NIH Developmental Studies Hybridoma Bank), respectively.
# [3] = Serum lipid and lipoprotein profile of apoE knockout mice; assay type: in vivo, mouse
# Experimental: The effect of each treatment on the lipid profile of each group of mice was determined by measuring the cholesterol and triglyceride. Blood from a terminal bleed was collected in a polypropylene tube, allowed to clot at room temperature for 2 hours and then spun (1,000×g; 5 minutes). The serum supernatant was aliquoted and stored at −20° C. until assayed. Total cholesterol and total triglycerides were determined for each mouse using the cholesterol oxidase and glycerol kinase UV end-point enzymatic methods respectively (Sigma Diagnostics).
# TGF-beta = TGF-beta in vessel wall of apoE knockout mice (quantitative immunofluorescence); assay type: in vivo, mouse; conditions: 87 days treatment
# Experimental: No. 08/478,936, filed Jun. 7, 1995, which is incorporated by reference herein. […] Sigma) and fixed in ice-cold acetone for 90 seconds, air-dried and stored at -20° C. until assayed. […] R&D Systems), see Mosedale et al., Histochem. Cytochem., 44, 1043 (1996), the disclosure of which is incorporated by reference herein. Active TGF-beta wag measured by quantitative immunofluorescence microscopy using the recombinant extracellular domain of the type II TGF-beta receptor […]) labeled with fluorescein.
# osteopontin = experiment: Osteopontin in vessel wall (quantitative immunofluorescence); assay type: in vivo, mouse; conditions: 87 days treatment
# Experimental: as §1
# [4] = single measurement on pooled blood of the group
compound,measurement,setting,value
"CCC(C)(C)C(=O)O[C@H]1C[C@@H](C)C=C2C=C[C@H](C)[C@H](CC[C@@H]3C[C@@H](O)CC(=O)O3)[C@H]21 [Zocor, simvastatin]",change in lesion development / lesion formation vs untreated mice,apoE knockout mice; 3 month treatment,−7%
same,Number of Lesions,apoE knockout mice; 87 days treatment,8.1 ± 0.4
same,Lesion Area (μm^2 staining),"apoE knockout mice; 87 days treatment, per mouse, n=10","25,777 ± 1368 μm^2"
same,effect on TGF-beta levels,[1],no effect
same,SMα Actin,[2],114 ± 19
same,Total cholesterol,"[3]; serum, 87 days treatment",224 ± 29 mg/dL
same,Total triglyceride,"[3]; serum, 87 days treatment",266 ± 14 mg/dL
same,HDL-cholesterol,[3]; [4],35 mg/dL
same,LDL-cholesterol,[3]; [4],54 mg/dL
same,VLDL-cholesterol,[3]; [4],158 mg/dL
same,change in LDL-cholesterol vs control mice,[3]; three months,−41%
same,change in VLDL-cholesterol vs control mice,[3]; three months,−14%
same,change in total plasma cholesterol vs control mice,[3]; three months,−27%
same,reduction in total plasma triglyceride concentration,[3]; three months,−12%
same,Active + Latent TGF-beta in Vessel Wall,TGF-beta,44 ± 5
same,Active TGF-beta in Vessel Wall,TGF-beta,20 ± 3
same,Osteopontin,osteopontin,73 ± 8
